The values that follow are results of earlier work, collected in patent US20250345461A1, “METHOD FOR REPAIRING HAIR CYCLE-RELATED GENES AND METHOD FOR TREATING HAIR CYCLE-RELATED DISEASES USING MIR-520D-5P” (LIVIUS PTE. LTD., priority 2021, published 2025).

Counter-ions that a name gives are not always drawn. Like-named read-outs stand apart in the source and are kept apart here.

On to `CCOc1nc2cccc(C(=O)O)c2n1Cc1ccc(-c2ccccc2-c2nnn[nH]2)cc1` [Candesartan], for which, under “Hypertension”, the “Maximum effective blood concentration at the time of administration or concentration in an external preparation in known indications” value (“Maximum effective blood concentration” for short) is “Administration: 75 ng/mL”.
Regarding `CCCNC(=O)NS(=O)(=O)c1ccc(Cl)cc1` [Chlorpropamide], the “Maximum effective blood concentration” value (Type 2 diabetes) is “Administration: 30 μg/mL”.
On to `C=C(CC)C(=O)c1ccc(OCC(=O)O)c(Cl)c1Cl` [Ethacrynic acid], for which the “Maximum effective blood concentration” value (Edematous diseases) is given as “Administration: 100 μM”.
`CCCCC(CC)CNC(=N)NC(=N)NCCCCCCNC(=N)NC(=N)NCC(CC)CCCC` (stereo not drawn) [Alexidine]: the “Inhibition of cancer growth (concentration in known indications)” value (Inhibition of cancer growth) is “Inhibition of cancer growth: 1 mM”.
Take `C=CCOc1ccccc1OCC(O)CNC(C)C` (stereo not drawn) [Oxprenolol]: the “Maximum effective blood concentration” value (Tachyarrhythmia, angina) is recorded as “Administration: 30.18 μg/μL”.
Consider Colistin, for which the “Maximum effective blood concentration” value (Escherichia coli, Shigella, multidrug-resistant Pseudomonas aeruginosa, infectious enteritis) is “Administration: 4.4 μg/mL”.
As to `CN[C@H](CC(C)C)C(=O)N[C@H]1C(=O)N[C@@H](CC(N)=O)C(=O)N[C@H]2C(=O)N[C@H]3C(=O)N[C@H](C(=O)N[C@H](C(=O)O)c4cc(O)cc(O)c4-c4cc3ccc4O)[C@H](O)c3ccc(c(Cl)c3)Oc3cc2cc(c3O[C@@H]2O[C@H](CO)[C@@H](O)[C@H](O)[C@H]2O[C@H]2C[C@](C)(N)[C@H](O)[C@H](C)O2)Oc2ccc(cc2Cl)[C@H]1O` [Vancomycin], where the note is “MRSA infection”, the “Maximum effective blood concentration” value is “Administration: 30 μg/mL”.
Turning to `CC(C)NCC(O)COc1ccc(CCOCC2CC2)cc1` (stereo not drawn) [Betaxolol], the “Maximum effective blood concentration” value (Essential hypertension, parenchymal renal hypertension, angina, glaucoma, ocular hypertension) is “Administration: 41.8 ng/mL”.
In the case of `CC(C)NCC(O)COc1ccc(COCCOC(C)C)cc1` (stereo not drawn) [Bisoprolol, Bisoprolol fumarate], the “Maximum effective blood concentration” value (Chronic heart failure due to essential hypertension, angina, ischemic heart disease, and dilated cardiomyopathy) was “Administration: 100 ng/mL”.
